Key:
α3 GlyR [1] = biological target: T1, α3 GlyR (Rattus norvegicus, UniProt P24524); details: cited from earlier work
T1 construct: expressed in transfected cells; host or cells: HEK293 (ATCC CRL-1573)
T1 sequence (P24524 34-464): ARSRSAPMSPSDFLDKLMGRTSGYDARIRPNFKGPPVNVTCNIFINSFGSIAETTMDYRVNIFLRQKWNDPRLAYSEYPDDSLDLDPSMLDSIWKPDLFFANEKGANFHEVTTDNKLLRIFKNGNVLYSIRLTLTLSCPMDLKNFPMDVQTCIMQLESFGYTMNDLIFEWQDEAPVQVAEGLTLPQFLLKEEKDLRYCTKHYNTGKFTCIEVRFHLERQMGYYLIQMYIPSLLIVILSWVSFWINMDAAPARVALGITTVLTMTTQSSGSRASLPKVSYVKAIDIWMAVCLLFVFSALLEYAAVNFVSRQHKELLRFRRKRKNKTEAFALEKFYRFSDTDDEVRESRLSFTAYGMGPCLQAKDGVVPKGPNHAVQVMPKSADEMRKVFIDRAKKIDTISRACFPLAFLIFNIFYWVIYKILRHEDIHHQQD

[2] = system: recombinant and native GABAARs; details: cited from earlier work
α2 GlyR = biological target: T2, α2 GlyR (Rattus norvegicus, UniProt P22771); details: cited from earlier work
T2 construct: The cells were transfected with plasmids encoding the following proteins; expressed in transfected cells; host or cells: HEK293 (ATCC CRL-1573)
T2 sequence (P22771 28-452): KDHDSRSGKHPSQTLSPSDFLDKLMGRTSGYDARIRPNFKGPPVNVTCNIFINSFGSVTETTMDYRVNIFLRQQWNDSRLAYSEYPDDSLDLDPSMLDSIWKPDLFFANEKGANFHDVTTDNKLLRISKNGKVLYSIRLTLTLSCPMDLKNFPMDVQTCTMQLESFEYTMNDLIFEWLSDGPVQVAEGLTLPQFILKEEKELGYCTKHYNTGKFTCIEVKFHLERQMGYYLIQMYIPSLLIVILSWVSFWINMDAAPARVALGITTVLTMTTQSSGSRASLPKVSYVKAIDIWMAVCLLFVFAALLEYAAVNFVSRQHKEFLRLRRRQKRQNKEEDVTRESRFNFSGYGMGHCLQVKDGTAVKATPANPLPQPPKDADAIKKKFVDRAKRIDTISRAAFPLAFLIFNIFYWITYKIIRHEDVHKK

native GlyRs = details: cited from earlier work
α1 GlyR [3] = biological target: T3, α1 GlyR (Rattus norvegicus, UniProt P07727); experiment: cell-based; type: cell-based
T3 construct: expressed in transfected cells; host or cells: HEK293 (ATCC CRL-1573)
T3 sequence (P07727 29-457): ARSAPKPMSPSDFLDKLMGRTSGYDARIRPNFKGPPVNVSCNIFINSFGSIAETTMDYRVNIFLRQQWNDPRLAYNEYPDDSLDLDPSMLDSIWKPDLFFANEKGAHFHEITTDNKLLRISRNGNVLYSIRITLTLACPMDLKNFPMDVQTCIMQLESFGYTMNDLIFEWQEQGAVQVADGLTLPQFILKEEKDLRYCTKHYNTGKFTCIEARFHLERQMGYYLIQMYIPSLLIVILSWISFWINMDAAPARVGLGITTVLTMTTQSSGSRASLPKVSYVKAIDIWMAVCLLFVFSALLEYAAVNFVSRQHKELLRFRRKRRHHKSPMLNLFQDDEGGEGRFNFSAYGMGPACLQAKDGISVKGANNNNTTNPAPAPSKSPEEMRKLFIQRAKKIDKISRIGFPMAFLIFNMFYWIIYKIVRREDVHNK
Protocol: (§1) The cells were transfected with plasmids encoding the following proteins: (i). rat GlyR α (1, 2, 3) subunits alone or combined with rat β subunits (Uniprot Accession Numbers: Q546L7, P22771, P20236, P20781); and (ii). rat GABAAR α1 combined with rat β2 and γ2 subunits (Uniprot Accession Numbers: P62813, P63138, P18508). The EGFP expression was used as a marker of successful protein expression. The transfection was performed using Lipofectamine 2000 (Invitrogen, ThermoFisher, Carlsbad, CA, USA) using the fabricant protocol. The plasmids used to express GlyRs and GABAARs have been previously described. To track the successful expression of GlyR β subunits and the GABAA γ2 or β2 subunit, these proteins were subcloned in the pIRES2-EGFP vector. The transfection ratio to obtain β-containing GlyRs was 1:5 of α:β, while the expression of γ2-containing GABAA receptors was 1:2:5 of α:β:γ2 [14, 15]. Chimeric GlyRs were described in a previous report. Site directed mutagenesis was performed by Charm Gene Science Mutagenex LLC. (Cumming, GA, USA). All the constructs were checked by full-length sequencing (SNPSaurus, Eugene, OR, USA).
(§2) In brief, patch electrodes (3–4 MΩ) were pulled from borosilicate glasses in a PC-100 puller (Narishige, Tokyo, Japan); then, they were filled with an intracellular solution, which contained (in mM) 120 CsCl, 8 EGTA, 10 HEPES (pH 7.4), 4 MgCl2, 0.5 GTP, and 2 ATP. The extracellular solution contained (in mM) 140 NaCl, 5.4 KCl, 2.0 CaCl2, 1.0 MgCl2, 10 HEPES (pH 7.4), and 10 glucose. Whole-cell patch-clamp recordings were performed at −60 mV with an Axoclamp 200B (Molecular Devices, Sunnyvale, CA, USA) or with HEKA EPC-10 (HEKA Elektronik GmbH, Reutlingen, Germany) amplifiers. […] Brief (3–5 s) pulses of agonist together with alkaloids were applied to cells. Stock solutions of the alkaloids were prepared in high purity distilled water. Aliquots of these stock solutions were diluted in reservoirs containing extracellular solution. […] The concentration–response curve parameters for the alkaloid inhibition (IC50, nH, and the maximal current inhibition) were obtained from the fitted curve of normalized concentration–response data points to the equation Iagonist = Imax (agonist)nH/((agonist)nH + (EC50)nH). The IC50 curves are best-fit mean ± SE from pooled data. […] The inhibition constant (Ki) was calculated using the Cheng–Prusoff equation (Ki = IC50/((2 + ([Agonist]/EC50)^nH)^1/nH − 1). The concentration of agonist corresponds to the sub-saturating agonist concentration used to obtain the IC50 for each alkaloid on a given GlyR subtype.

α1 GlyR [4] = biological target: T3, α1 GlyR; details: homomeric α1GlyRs; cited from earlier work
α2β GlyR = biological target: T4, α2β GlyR (Rattus norvegicus, UniProt P20781+P22771); experiment: cell-based; type: cell-based
T4 construct: The cells were transfected with plasmids encoding the following proteins; expressed in transfected cells; host or cells: HEK293 (ATCC CRL-1573)
Protocol: as §1, §2

α3 GlyR [5] = biological target: T1, α3 GlyR; experiment: cell-based; type: cell-based
Protocol: as §1, §2

[6] = Hill coefficient of inhibition curve
[7] = calculated using the Cheng–Prussof equation
[8] = percentage change of glycine-evoked current

T4 sequence (P20781 23-496, one chain of several): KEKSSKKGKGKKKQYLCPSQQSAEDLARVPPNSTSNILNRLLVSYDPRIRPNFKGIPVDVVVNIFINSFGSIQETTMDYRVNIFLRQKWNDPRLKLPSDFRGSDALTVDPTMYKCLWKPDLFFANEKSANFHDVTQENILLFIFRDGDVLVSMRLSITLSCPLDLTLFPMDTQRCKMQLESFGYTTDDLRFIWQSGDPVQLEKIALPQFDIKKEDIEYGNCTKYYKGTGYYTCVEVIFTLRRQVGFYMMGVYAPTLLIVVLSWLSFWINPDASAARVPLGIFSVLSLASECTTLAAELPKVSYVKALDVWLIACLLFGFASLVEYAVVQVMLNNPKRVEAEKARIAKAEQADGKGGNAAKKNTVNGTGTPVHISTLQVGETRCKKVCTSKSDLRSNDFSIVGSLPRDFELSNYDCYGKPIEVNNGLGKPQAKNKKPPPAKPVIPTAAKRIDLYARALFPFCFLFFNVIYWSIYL

Q: With `C=C[C@]12CN(C)[C@@H]3[C@H]4CO[C@H](C[C@H]41)[C@]1(C(=O)Nc4ccccc41)[C@@H]32` [gelsemine] as the compound, how does the “modulation of currents (in words)” value (α3 GlyR [1]) read?
A: concentration-dependent inhibition

Q: What about the IC50 [2] of the same compound?
A: 55 to 75 µM

Q: What about the “modulation of currents (in words)” value (α2 GlyR) of the same compound?
A: concentration-dependent inhibition

Q: And the IC50 (native GlyRs)?
A: ~40 µM

Q: And the “effect on glycine-evoked currents (in words)” value (α1 GlyR [3]; wild-type, 10 μM gelsemine, 35 μM glycine)?
A: potentiated

Q: What about the “modulation of currents (in words)” value (α1 GlyR [4]) of the same compound?
A: bell-shape modulation

Q: For `NCC(=O)O` [glycine, reference compound], which EC50 (α2β GlyR; read-out: EC50 of agonist) is on record?
A: 105 ± 9 µM

Q: And the EC50 (α3 GlyR [5]; read-out: EC50 of agonist)?
A: 150 ± 10 µM

Q: With `C=C[C@@]12CN(C)[C@H]3C[C@]14C(=Nc1ccccc14)[C@H]1C[C@@H]2[C@@H]3CO1` [koumine] as the compound, how does the IC50 (α1 GlyR [3]) read?
A: 31.5 ± 1.7 µM

Q: What about the nH (α1 GlyR [3]; [6]) of the same compound?
A: 1.7 ± 0.1

Q: And the Ki (α1 GlyR [3]; [7])?
A: 53.1 ± 17.1 µM

Q: What about the “Maximal Modulation” value (α1 GlyR [3]; [8]) of the same compound?
A: −95.0 ± 1.5%

Q: And the IC50 (α2β GlyR)?
A: 23.6 ± 8.3 µM

Q: What about the nH (α2β GlyR; [6]) of the same compound?
A: 1.3 ± 0.6

Q: And the Ki (α2β GlyR; [7])?
A: 57.4 ± 4 µM

Q: What about the IC50 (α3 GlyR [5]) of the same compound?
A: 15.8 ± 4.6 µM

Q: What about the nH (α3 GlyR [5]; [6]) of the same compound?
A: 0.9 ± 0.2

Q: And the Ki (α3 GlyR [5]; [7])?
A: 33.9 ± 15.8 µM

Q: What about the “Maximal Modulation” value (α3 GlyR [5]; [8]) of the same compound?
A: −87.3 ± 4.0%

Reference: publication PMC10970644, “Molecular Pharmacology of Gelsemium Alkaloids on Inhibitory Receptors” (International Journal of Molecular Sciences, 2024)
